# US6187906A, “Methods to improve neural outcome” (Aukland Uniservices Limited, priority 1998, dated 2001)
# What was measured:
# [1] = system: hypoxic-ischemic brain injury; assay: Hypoxic-ischemic brain injury in adult rats, central GPE (Experiment 3); assay type: in vivo, Wistar rats
# Description: The objective of this study was to compare the effects of treatment with GPE to that of vehicle given 2 hours after a hypoxic-ischemic brain injury.
# Unilateral hypoxic-ischemic injury was induced in adult 300±10 g) male Wistar rats. The rats underwent unilateral carotid ligation under light halothane anaesthesia. Following one hour recovery they were placed in an incubator at 34C at 85±5% humidity for one hour before injury. They were subjected to 10 min inhalational asphyxia (FiO2 6.0%) and maintained in the incubator for one hour after asphyxia. Two hours after the termination of the inhalation injury, a single stereotaxically controlled lateral cerebroventricular injection of either 3 μGPE (n=15) or phosphate buffered saline alone (n=15) was given. The animals were then maintained for 120 hrs, anaesthetized and the brains fixed in situ for histological assessment.
# Surviving and dead neurons were discriminated with the use of a thionin/acid fuchsin staining technique [C. Williams, A. Gunn, C. Mallard, P. Gluckman Ped Res. (1990). A. Brown, J. Brierley, J. Neurol Sci, 16:59-84 (1971)]. The results are shown in FIG. 3; using a scoring technique. […] Similar to our previous study with IGF-1 the incidence of cortical infarction was lower following GPE treatment at 27% compared to the control/vehicle treated rats at 53% (Guan et al J Cereb Blood Flow Metab. 13:609-616 (1993)).
# (The incidence of hippocampal damage was reduced following treatment with 3 μg GPE. The asterisk indicates a probability of under <0.05.
# For this figure the columns A and B indicate the proportional loss of area (which can be extrapolated to indicate volume using the well-known principles of stereology) between the left and rights sides of the cortex of the brain, for either a control vehicle or 3 μG of GPE. Volumes were measured using computer-aided image analysis techniques. […] Neurones were counted after staining, with the aid of a microscope. […] Thus a single central injection of GPE following an asphyxial injury in the adult rat was associated with a marked improvement in outcome as assessed histologically.
# [2] = system: mesencephalic neurons (dopaminergic); assay: Dopamine uptake in 6-OHDA treated embryonic mesencephalic cultures (Experiment 8); assay type: cell-based, Wistar rat; settings: 0.01-100 μM GPE, 4 μM 6-OHDA
# Description: Wistar rat ventral mesencephali from E15 (E1=plug) fetuses were dissected, pooled, and gently dissociate by repeated trituration in 3 ml of sterile modified Krebs-Ringer medium (Gibco, Life Technologies Ltd., NZ) supplemented per liter with 50,000 IU penicillin, 50 mg streptomycin, 1.26 g NaHCO3, and 2.2 g glucose. 2 ml of media was added and the suspension allowed to stand for 7 minutes, after which the supernatant was centrifuged for 7 minutes at 350 xg. The pellet was resuspended in serum-containing media: MEM media with 50,000 IU penicillin, 50 mg streptomycin, 1.26 g NaHCO3 and 5% fetal calf serum (Gibco). Cells were seeded at 2.5-4.0×10^5 trypan-excluding viable cells/cm^2 in sterile 24 well plates precoated for two hours with 5 μg/ml poly-L lysine in H2 O. Cultures were allowed to recover for 24 h at 37° C. in a humidified 95% air: 5% CO2 incubator. […]
# Cultures were assayed for dopamine uptake using a modified procedure of Prochiantz et al., 1981 (Nature, Vol. 293, No., 5833). […] The wells were then rinsed with 250 μl 1% Triton X-100 and the contents added to the appropriate scintillation vial containing 4 ml of Ready safe scintillation fluid (Beckman, Palo Alto, Calif.). […]
compound,measurement,setting,value
"NCC(=O)N1CCC[C@H]1C(=O)N[C@@H](CCC(=O)O)C(=O)O [GPE, gly-pro-glu]",incidence of hippocampal damage in the ligated hemisphere,"[1]; 3 μg GPE 2 hours after hypoxia, p<0.05 vs vehicle",reduced the incidence of hippocampal damage
same,incidence of cortical infarction,"[1]; 3 μg GPE lateral cerebroventricular injection 2 hours after injury, 120 hrs, vehicle 53%",27%
same,"number of damaged cells (FIG. 4, cortex area and live hippocampal neurones R/L)","[1]; 3 μg GPE, single central injection, p 0.04",significant reduction in the number of damaged cells
same,protection from 6-OHDA toxicity (dopamine uptake),[2],protects mesencephalic neurons
